Measurements: publication PMC8317200 (Journal of medicinal chemistry, 2020)
Each block holds one molecule with its values, some of them ahead of it. Residues, ends and D or L forms follow the SMILES beside them. *: point of attachment. Adamantane1carbonyl = O=C(C12CC3CC(CC(C3)C1)C2)*; NH(1-Adamantyl) = C1C2CC3CC1CC(N*)(C2)C3; Fmoc = O=C(OCC1c2ccccc2-c2ccccc21)*; Benzoyl(4-F) = O=C(c1ccc(F)cc1)*; Pyrrolidide = C1CCN(*)C1; Cbz = O=C(OCc1ccccc1)*; OcHex = C1CCC(O*)CC1; Bz = O=C(c1ccccc1)*; OtBu = CC(C)(C)O*; OAll = C=CCO*; X1 = C#CCO*

Tests used:
FGF14 = target: T1, FGF14 (Homo sapiens, UniProt Q92915); test: Surface plasmon resonance; format: binding; details: for kon: read-out: kon FGF14; for koff: read-out: koff FGF14
T1 sequence (Q92915 64-252 isoform Q92915-2): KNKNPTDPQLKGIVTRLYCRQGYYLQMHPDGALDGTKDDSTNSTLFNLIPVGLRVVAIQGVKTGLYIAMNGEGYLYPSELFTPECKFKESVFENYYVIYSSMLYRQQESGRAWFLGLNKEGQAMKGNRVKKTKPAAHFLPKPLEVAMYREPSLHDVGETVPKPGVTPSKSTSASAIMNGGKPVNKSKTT

FGF14:Nav1.6 complex = target: T2, FGF14:Nav1.6 complex (Homo sapiens, UniProt Q92915); test: Split-luciferase complementation assay; format: cell-based; details: for activity at 50 µM: HEK293, 1 h, read-out: RLVs (%); for Inhibitory activity against FGF14:Nav1.6 complex assembly (in words): 50 μM screening
T2 sequence (Q92915 1-252 isoform Q92915-2): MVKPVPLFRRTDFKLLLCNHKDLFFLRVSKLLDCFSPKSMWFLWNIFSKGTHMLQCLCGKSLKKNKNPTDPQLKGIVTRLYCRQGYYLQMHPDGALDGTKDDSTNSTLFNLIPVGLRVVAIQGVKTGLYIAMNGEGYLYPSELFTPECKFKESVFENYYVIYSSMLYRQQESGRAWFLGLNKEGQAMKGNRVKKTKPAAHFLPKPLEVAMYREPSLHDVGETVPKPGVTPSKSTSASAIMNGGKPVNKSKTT

CLuc-FGF14-1b (human) = target: T3, CLuc-FGF14-1b (human) (UniProt Q92915); test: split reporter
T3 sequence: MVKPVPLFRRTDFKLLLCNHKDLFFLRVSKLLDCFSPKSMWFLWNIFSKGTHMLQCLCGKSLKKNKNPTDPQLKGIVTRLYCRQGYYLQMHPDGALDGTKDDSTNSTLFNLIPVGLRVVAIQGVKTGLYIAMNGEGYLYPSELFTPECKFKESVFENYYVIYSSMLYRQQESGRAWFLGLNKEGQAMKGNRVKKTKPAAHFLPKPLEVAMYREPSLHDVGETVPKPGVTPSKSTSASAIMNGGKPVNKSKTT

Molecule: C#CCOC(=O)[C@@H](NC(=O)[C@H](CCC(=O)OC(C)(C)C)NC(=O)[C@H](CC(C)C)NC(=O)[C@@H]1CCCN1C(=O)C12CC3CC(CC(C3)C1)C2)C(C)C [Compound 23b, tert-Butyl (4S)-4-((2S)-2-((2S)-1-((1R,3R)-adamantane-1-carbonyl)pyrrolidine-2-carboxamido)-4-methylpentanamido)-5-(((S)-3-methyl-1-oxo-1-(prop-2-yn-1-yloxy)butan-2-yl)amino)-5-oxopentanoate] (Adamantane1carbonyl-PLE(OtBu)V-X1)
kon (FGF14): 25800 M⁻¹ s⁻¹

Molecule: CC(C)C[C@H](NC(=O)[C@@H]1CCCN1C(=O)OCc1ccccc1)C(=O)N[C@@H](CCC(=O)OC(C)(C)C)C(=O)N[C@H](C(=O)N1CCCC1)C(C)C [Compound 19e, Benzyl (S)-2-(((S)-1-(((S)-5-(tert-butoxy)-1-(((S)-3-methyl-1-oxo-1-(pyrrolidin-1-yl)butan-2-yl)amino)-1,5-dioxopentan-2-yl)amino)-4-methyl-1-oxopentan-2-yl)carbamoyl)pyrrolidine-1-carboxylate] (Cbz-PLE(OtBu)V-Pyrrolidide)
koff (FGF14): 0.000991 s⁻¹
kon (FGF14): 461 M⁻¹ s⁻¹

activity at 50 µM (FGF14:Nav1.6 complex): > 100%
Molecule: CC(C)C[C@H](NC(=O)[C@@H]1CCCN1C(=O)OCc1ccccc1)C(=O)N[C@H](C(N)=O)C(C)C [Compound 31, Benzyl (S)-2-(((S)-1-(((S)-1-amino-3-methyl-1-oxobutan-2-yl)amino)-4-methyl-1-oxopentan-2-yl)carbamoyl)pyrrolidine-1-carboxylate] (Cbz-Pro-Leu-Val-NH2)

Molecule: CC(C)C[C@H](NC(=O)[C@@H]1CCCN1C(=O)C12CC3CC(CC(C3)C1)C2)C(=O)N[C@@H](CCC(=O)OC(C)(C)C)C(=O)N[C@H](C(=O)OC1CCCCC1)C(C)C [Compound 23e, tert-Butyl (4S)-4-((2S)-2-((2S)-1-((1R,3R)-adamantane-1-carbonyl)pyrrolidine-2-carboxamido)-4-methylpentanamido)-5-(((S)-1-(cyclohexyloxy)-3-methyl-1-oxobutan-2-yl)amino)-5-oxopentanoate] (Adamantane1carbonyl-PLE(OtBu)V-OcHex)
koff (FGF14): 0.0139 s⁻¹
kon (FGF14): 7350 M⁻¹ s⁻¹

Molecule: COC(=O)[C@@H](NC(=O)[C@H](CCC(=O)OC(C)(C)C)NC(=O)[C@H](CC(C)C)NC(=O)[C@@H]1CCCN1C(=O)OCC1c2ccccc2-c2ccccc21)C(C)C [Compound 21b, (9H-Fluoren-9-yl)methyl (S)-2-(((S)-1-(((S)-5-(tert-butoxy)-1-(((S)-1-methoxy-3-methyl-1-oxobutan-2-yl)amino)-1,5-dioxopentan-2-yl)amino)-4-methyl-1-oxopentan-2-yl)carbamoyl)pyrrolidine-1-carboxylate] (Fmoc-PLE(OtBu)V-OMe)
Inhibitory activity against FGF14:Nav1.6 complex assembly (in words) (FGF14:Nav1.6 complex): markedly reduced inhibitory activity

activity at 50 µM (FGF14:Nav1.6 complex): > 100%
Molecule: COC(=O)[C@@H](NC(=O)[C@H](CC(C)C)NC(=O)[C@@H]1CCCN1C(=O)OCc1ccccc1)C(C)C [Compound 32, Benzyl (S)-2-(((S)-1-(((S)-1-methoxy-3-methyl-1-oxobutan-2-yl)amino)-4-methyl-1-oxopentan-2-yl)carbamoyl)pyrrolidine-1-carboxylate] (Cbz-Pro-Leu-Val-OMe)

Molecule: CC(C)C[C@H](NC(=O)[C@@H]1CCCN1C(=O)c1ccccc1)C(=O)N[C@@H](CCC(=O)OC(C)(C)C)C(=O)N[C@H](C(N)=O)C(C)C [Compound 13a, tert-Butyl (S)-5-(((S)-1-amino-3-methyl-1-oxobutan-2-yl)amino)-4-((S)-2-((S)-1-benzoylpyrrolidine-2-carboxamido)-4-methylpentanamido)-5-oxopentanoate] (Bz-PLE(OtBu)V-NH2)
Inhibitory activity against FGF14:Nav1.6 complex assembly (in words) (FGF14:Nav1.6 complex): did not show any inhibitory activity

activity at 50 µM (FGF14:Nav1.6 complex): > 100%
Molecule: COC(=O)CC[C@H](NC(=O)[C@H](CC(C)C)NC(=O)[C@@H]1CCCN1C(=O)OCc1ccccc1)C(=O)OC(C)(C)C [Compound 30, 1-(tert-Butyl) 5-methyl ((benzyloxy)carbonyl)-L-prolyl-L-leucyl-L-glutamate] (Cbz-Pro-Leu-Glu(OMe)-OtBu)

Molecule: CC(C)C[C@H](NC(=O)[C@@H]1CCCN1C(=O)C12CC3CC(CC(C3)C1)C2)C(=O)N[C@@H](CCC(=O)OC(C)(C)C)C(=O)N[C@H](C(=O)OC(C)(C)C)C(C)C [Compound 23d, tert-Butyl (4S)-4-((2S)-2-((2S)-1-((1R,3R)-adamantane-1-carbonyl)pyrrolidine-2-carboxamido)-4-methylpentanamido)-5-(((S)-1-(tert-butoxy)-3-methyl-1-oxobutan-2-yl)amino)-5-oxopentanoate] (Adamantane1carbonyl-PLE(OtBu)V-OtBu)
koff (FGF14): 0.0058 s⁻¹
kon (FGF14): 1620 M⁻¹ s⁻¹

Molecule: CC(C)C[C@H](NC(=O)[C@@H]1CCCN1C(=O)OCc1ccccc1)C(=O)N[C@@H](CCC(=O)OC(C)(C)C)C(=O)N[C@H](C(=O)NC12CC3CC(CC(C3)C1)C2)C(C)C [Compound 19h, Benzyl (S)-2-(((S)-1-(((S)-1-(((S)-1-(((3R,5R,7R)-adamantan-1-yl)amino)-3-methyl-1-oxobutan-2-yl)amino)-5-(tert-butoxy)-1,5-dioxopentan-2-yl)amino)-4-methyl-1-oxopentan-2-yl)carbamoyl)pyrrolidine-1-carboxylate] (Cbz-PLE(OtBu)V-{NH(1-Adamantyl)})
Inhibitory activity against FGF14:Nav1.6 complex assembly (in words) (FGF14:Nav1.6 complex): minimal inhibitory activity

Molecule: COC(=O)[C@@H](NC(=O)[C@H](CCC(=O)OC(C)(C)C)NC(=O)[C@H](CC(C)C)NC(=O)[C@@H]1CCCN1C(C)=O)C(C)C [Compound 21c, tert-Butyl (S)-4-((S)-2-((S)-1-acetylpyrrolidine-2-carboxamido)-4-methylpentanamido)-5-(((S)-1-methoxy-3-methyl-1-oxobutan-2-yl)amino)-5-oxopentanoate] (Ac-PLE(OtBu)V-OMe)
Inhibitory activity against FGF14:Nav1.6 complex assembly (in words) (FGF14:Nav1.6 complex): markedly reduced inhibitory activity

Molecule: CC(C)C[C@H](NC(=O)[C@@H]1CCCN1C(=O)c1ccc(F)cc1)C(=O)N[C@@H](CCC(=O)OC(C)(C)C)C(=O)N[C@H](C(N)=O)C(C)C [Compound 13f, tert-Butyl (S)-5-(((S)-1-amino-3-methyl-1-oxobutan-2-yl)amino)-4-((S)-2-((S)-1-(4-fluorobenzoyl)pyrrolidine-2-carboxamido)-4-methylpentanamido)-5-oxopentanoate] ({Benzoyl(4-F)}-PLE(OtBu)V-NH2)
Inhibitory activity against FGF14:Nav1.6 complex assembly (in words) (FGF14:Nav1.6 complex): did not show any inhibitory activity
activity at 50 µM (FGF14:Nav1.6 complex): 123 ± 3%

Molecule: C=CCOC(=O)[C@@H](NC(=O)[C@H](CCC(=O)OC(C)(C)C)NC(=O)[C@H](CC(C)C)NC(=O)[C@@H]1CCCN1C(=O)OCc1ccccc1)C(C)C [Compound 19k, Benzyl (S)-2-(((S)-1-(((S)-1-(((S)-1-(allyloxy)-3-methyl-1-oxobutan-2-yl)amino)-5-(tert-butoxy)-1,5-dioxopentan-2-yl)amino)-4-methyl-1-oxopentan-2-yl)carbamoyl)pyrrolidine-1-carboxylate] (Cbz-PLE(OtBu)V-OAll)
Binding by PTS and SPR (in words) (FGF14; PTS and SPR): negligible binding

IC50 (CLuc-FGF14-1b (human)): 35.3 µM
efficacy (percent inhibition at the bottom plateau) (CLuc-FGF14-1b (human)): 69.9%
Molecule: Adamantane1carbonyl-PLE(OtBu)V-{O‑cyclohexyl} [compound 23e]

IC50 (CLuc-FGF14-1b (human)): 13.3 µM
efficacy (percent inhibition at the bottom plateau) (CLuc-FGF14-1b (human)): 82.3%
B1: compound 23f (peptide)
peptide: Adamantane1carbonyl-PLE(OtBu)V-OEt
SMILES: CCOC(=O)[C@@H](NC(=O)[C@H](CCC(=O)OC(C)(C)C)NC(=O)[C@H](CC(C)C)NC(=O)[C@@H]1CCCN1C(=O)C12CC3CC(CC(C3)C1)C2)C(C)C

IC50 (CLuc-FGF14-1b (human)): 22.5 µM
efficacy (percent inhibition at the bottom plateau) (CLuc-FGF14-1b (human)): 83.3%
Molecule: Adamantane1carbonyl-PLE(OtBu)V-{O‑propyl} [compound 23g]

IC50 (CLuc-FGF14-1b (human)): 13.8 µM
efficacy (percent inhibition at the bottom plateau) (CLuc-FGF14-1b (human)): 96.6%
Molecule: Adamantane1carbonyl-PLE(OtBu)V-{O‑propargyl} [compound 23b]

IC50 (CLuc-FGF14-1b (human)): 20.4 µM
efficacy (percent inhibition at the bottom plateau) (CLuc-FGF14-1b (human)): 96.1%
B2: compound 21a (peptide)
peptide: Adamantane1carbonyl-PLE(OtBu)V-OMe
SMILES: COC(=O)[C@@H](NC(=O)[C@H](CCC(=O)OC(C)(C)C)NC(=O)[C@H](CC(C)C)NC(=O)[C@@H]1CCCN1C(=O)C12CC3CC(CC(C3)C1)C2)C(C)C

IC50 (CLuc-FGF14-1b (human)): 11.5 µM
efficacy (percent inhibition at the bottom plateau) (CLuc-FGF14-1b (human)): 95.5%
Molecule: Adamantane1carbonyl-PLE(OtBu)V-{O‑allyl} [compound 23a]

IC50 (CLuc-FGF14-1b (human)): 33.9 µM
efficacy (percent inhibition at the bottom plateau) (CLuc-FGF14-1b (human)): 92.1%
B3: compound 23d (peptide)
peptide: Adamantane1carbonyl-PLE(OtBu)V-OtBu
SMILES: CC(C)C[C@H](NC(=O)[C@@H]1CCCN1C(=O)C12CC3CC(CC(C3)C1)C2)C(=O)N[C@@H](CCC(=O)OC(C)(C)C)C(=O)N[C@H](C(=O)OC(C)(C)C)C(C)C
